Measurements taken from patent US11419878B2, “Medicine obtained by combining FXR agonist and ARB” (Intercept Pharmaceuticals, Inc., priority 2016, dated 2022).

Assays:
[1] = system: C57Bl/6J mice fed a CDAHFD; test: Murine NASH model (CDAHFD-fed mice), serum ALT activity; format: in vivo, mouse; conditions: obeticholic acid 10 mg/kg/day and/or losartan 30 mg/kg/day oral, 3 weeks from 6 weeks of diet
Source text: According to the NASH/NAFLD Practice Guideline of 2015 (Japan Society of Hepatology, NASH/NAFLD Practice Guideline 2015. Tokyo: Bunkodo; 2015.), the important factors in NASH diagnostic screening are an abdominal ultrasound diagnosis of fatty liver and abnormal ALT (alanine aminotransferase) values. The diagnosis of NASH is confirmed by liver biopsy, with control of obesity/hypertension/lipid abnormalities being one of the basic criteria, and continuing high values for transaminases (aminotransferases) are also significant. […] Aliment Pharmacol Ther. 2013 Jul. 38 (2): 134-43). Based on the above findings, as ALT is considered an important prognostic factor in the progression of NASH, treatment to improve ALT levels is expected to alleviate the pathology of NASH. For this reason, evaluation was conducted using the animal model of reduction of ALT below, and the effects of monotherapy and combined administration of an FXR agonist (obeticholic acid) and an ARB (losartan) were studied.
The same method was used as in working example 7.
Male C57Bl/6J mice (n=50) […]
In order to evaluate serum alanine aminotransferase (ALT) activity, blood samples were taken from mice that had completed the above-mentioned testing, and the serum was separated. Using a pharmaceutical product for in vitro diagnosis, ALT activity in the serum samples was enzymatically measured.

[2] = system: TGF-β1; test: Rat NASH model, RT-PCR of hepatic TGF-β1 mRNA expression; format: in vivo; conditions: OLETF rats, PS 8 weeks, obeticholic acid 30 mg/kg/day and/or losartan 30 mg/kg/day oral
Protocol: Using the liver sections from the rats in the various groups obtained in working example 1, an immunohistochemical study by immunohistological staining with α-smooth muscle actin (α-SMA) antibody and a quantitative analysis of transforming growth factor-β1 TGF-β1) and collagen (α1(I) procollagen) mRNA expression were conducted. α-SMA is known to be an indicator (marker) of activation of hepatic stellate cells (HSCs) (also known as hepatic star cells). Moreover, activation of hepatic stellate cells (HSC), overproduction of TGF-β1 (a fibrosis-promoting cytokine) accompanying said activation, and overproduction of extracellular matrix components such as collagen are thought to play a central role in the mechanism of progressive hepatic fibrosis in NASH. For this reason, mRNA expression of TGF-β1 and collagen (α1(I) procollagen) can be a fibrosis indicator (marker).
A comparative study was conducted by analyzing TGF-β1 and collagen (α1(I) procollagen) mRNA expression in the livers of the rates of the various groups of working example 1 by means of the quantitative real-time polymerase chain reaction (RT-PCR). Quantitation of the mRNA expression levels by RT-PCR was conducted on a StepOne Plus™ system (manufactured by Applied Biosystems®) using the fluorescent dye SYBR® Green

[3] = biological target: T1, FXR (Homo sapiens, UniProt Q96RI1); conditions: background statement; cited from earlier work
T1 sequence (Q96RI1 1-486): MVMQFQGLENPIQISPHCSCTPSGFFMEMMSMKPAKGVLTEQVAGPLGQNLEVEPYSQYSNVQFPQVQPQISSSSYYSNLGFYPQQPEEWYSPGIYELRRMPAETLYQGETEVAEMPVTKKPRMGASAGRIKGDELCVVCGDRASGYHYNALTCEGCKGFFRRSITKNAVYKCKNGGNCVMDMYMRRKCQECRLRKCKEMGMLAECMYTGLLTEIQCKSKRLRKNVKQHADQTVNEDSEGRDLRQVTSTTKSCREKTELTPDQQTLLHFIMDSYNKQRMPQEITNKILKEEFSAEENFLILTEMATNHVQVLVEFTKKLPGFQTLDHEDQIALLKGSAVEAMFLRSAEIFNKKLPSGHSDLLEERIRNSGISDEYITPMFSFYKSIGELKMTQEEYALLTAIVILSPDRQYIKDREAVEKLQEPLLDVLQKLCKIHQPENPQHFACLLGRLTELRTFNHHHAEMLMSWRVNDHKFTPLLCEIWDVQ

SMILES | improvement in serum ALT activity versus the positive control group [1] | TGF-β1 mRNA expression in liver compared to the positive control group [2] | FXR agonist action / FXR-stimulating action [3]
CCCCc1nc(Cl)c(CO)n1Cc1ccc(-c2ccccc2-c2nn[nH]n2)cc1 [losartan] | only an improving trend | moderate decreasing tendency | 
CC[C@H]1[C@@H](O)[C@@H]2[C@H](CC[C@]3(C)[C@@H]([C@H](C)CCC(=O)O)CC[C@@H]23)[C@@]2(C)CC[C@@H](O)C[C@@H]12 [obeticholic acid, 3α,7α-dihydroxy-6α-ethyl-5β-cholan-24-oic acid] | only an improving trend | moderate decreasing tendency | strongest FXR-stimulating action among the semi synthetic alkylated bile acids
